# Experiments:
# TNFα = TNFα expression in RAW 264 macrophages; type: cell-based; details: RAW 264 macrophages cultured alone; compound added to calcitriol
# Method: (§1) RAW 264 macrophages and 3T3-L1 preadipocytes (American Type Culture Collection) were incubated at a density of 8000 cells/cm2 (10 cm2 dish) and grown in Dulbecco's modified Eagle's medium (DMEM) containing 10% FBS and antibiotics (adipocyte medium) at 37° C. in 5% CO2 in air. Confluent 3T3-L1 preadipocytes were induced to differentiate with a standard differentiation medium consisting of DMEM-F10 (1:1, vol/vol) medium supplemented with 1% FBS, 1 μM dexamethasone, IBMX (0.5 mM) and antibiotics (1% Penicillin-Streptomycin). Preadipocytes were maintained in this differentiation medium for 3 days and subsequently cultured in adipocyte medium. Cultures were re-fed every 2-3 days to allow 90% cells to reach fully differentiation for 3T3-L1 adipocytes or grow to a confluence for RAW 264 before conducting chemical treatment.
# (§2) Cells were washed with fresh adipocyte medium, re-fed with medium containing the indicated treatments, and incubated at 37° C. in 5% CO2 for 48 hours before analysis. Cell viability was measured via trypan blue exclusion.
# (§3) Human adipocytes (Zen-Bio, Inc.), 3T3-L1 adipocytes, RAW264 macrophages were obtained and co-cultured by using transwell inserts with 0.4 μm porous membranes (Corning) to separate adipocytes and macrophages. All data are expressed as mean±SEM. Data were evaluated for statistical significance by analysis of one-way or two-way variance (ANOVA; means with different letter differ, p<0.05).
# Adipocyte and muscle 18s, CD14, TNFα, MIP, M-CSF, IL-6 and MCP-1 were quantitatively measured using a Smart Cycler Real Time PCR System (Cepheid, Sunnyvale, Calif.) with a TaqMan 1000 Core Reagent Kit (Applied Biosystems, Branchburg, N.J.). […] Reactions of quantitative RT-PCR for standards and unknown samples were also performed according to the instructions of Smart Cycler System (Cepheid, Sunnyvale, Calif.) and TaqMan Real Time PCR Core Kit (Applied Biosystems, Branchburg, N.J.). The mRNA quantitation for each sample was further normalized using the corresponding 18s quantitation.
# IL-6 = IL-6 expression in RAW 264 macrophages; type: cell-based; details: RAW 264 macrophages cultured alone; compound added to calcitriol
# Method: as §1, with “Cultures were re-fed every 2-3 days to allow 90% cells to reach fully differentiation for 3T3-L1 adipocytes or grow to a confluence for RAW 264 before conducting chemical treatment.” left out
# as §2
# as §3, with “p<0.05). […]” for “p<0.05).”
# 3T3-L1 adipocytes [1] = assay: Cell proliferation / DNA synthesis in cultured adipocytes (CyQUANT); type: cell-based, mouse; details: compound plus glucose 30 mmol/L, 48 hours
# Method: (§4) 3T3-L1 preadipocytes were incubated at a density of 8000 cells/cm^2 (10 cm^2 dish) and grown in Dulbecco's modified Eagle's medium (DMEM) containing 10% FBS and antibiotics (adipocyte medium) at 37° C. in 5% CO2 in air. Confluent preadipocytes were induced to differentiate with a standard differentiation medium consisting of DMEM-F10 (1:1, vol/vol) medium supplemented with 1% FBS, 1 μM dexamethasone, IBMX (0.5 mM) and antibiotics (1% Penicillin-Streptomycin). Preadipocytes were maintained in this differentiation medium for 3 days and subsequently cultured in adipocyte medium. Cultures were re-fed every 2-3 days to allow 90% of cells to reach full differentiation before conducting chemical treatment. Chemicals were freshly diluted in adipocyte medium before treatment. Cells were washed with fresh adipocyte medium, re-fed with medium containing the different treatments, and incubated at 37° C. in 5% CO2 in air before analysis. Cell viability was measured via trypan blue exclusion. Cells were plated in DMEM with different treatment in duplicate in 96-well plates. After 48 h, a CyQUANT Cell Proliferation Kit (Molecular Probes, Eugene, Oreg.) was used following the manufacturer's protocol. a microplate fluorometer (Packard Instrument Company, Inc., Downers Grove, Ill.) was used to measure CyQUANT fluorescence. Cell viability was determined by Trypan blue exclusion examination.
# 3T3-L1 adipocytes [2] = assay: Intracellular ROS generation in cultured adipocytes (H2-DCFDA); type: cell-based, mouse
# Method: as §4, with “exclusion. […]” for “exclusion.”, “loaded” for “plated in DMEM”, “H2-DCFDA (2 μmol/L) 30 minute before the end of the incubation period (48 h).” for “different treatment in duplicate in 96-well plates.”, “washing twice with PBS, cells were scraped and disrupted by sonication on ice (20 s). Fluorescence (emission 543 nm or 527 nm) and DNA content were then measured as described previously. The intensity of fluorescence” for “48 h, a CyQUANT Cell Proliferation Kit (Molecular Probes, Eugene, Oreg.)”, “expressed as arbitrary units per ng DNA.” for “used following the manufacturer's protocol. a microplate fluorometer (Packard Instrument Company, Inc., Downers Grove, Ill.) was used to measure CyQUANT fluorescence. Cell viability was determined by Trypan blue exclusion examination.”
# 3T3-L1 adipocytes [3] = assay: Mitochondrial membrane potential (JC-1); type: cell-based, mouse; details: GDP 100 μmol/L plus H2O2
# Method: 3T3-L1 preadipocytes were incubated at a density of 8000 cells/cm^2 (10 cm^2 dish) and grown in Dulbecco's modified Eagle's medium (DMEM) containing 10% FBS and antibiotics (adipocyte medium) at 37° C. in 5% CO2 in air. Confluent preadipocytes were induced to differentiate with a standard differentiation medium consisting of DMEM-F10 (1:1, vol/vol) medium supplemented with 1% FBS, 1 μM dexamethasone, IBMX (0.5 mM) and antibiotics (1% Penicillin-Streptomycin). Preadipocytes were maintained in this differentiation medium for 3 days and subsequently cultured in adipocyte medium. Cultures were re-fed every 2-3 days to allow 90% of cells to reach full differentiation before conducting chemical treatment. Chemicals were freshly diluted in adipocyte medium before treatment. […] Cell viability was measured via trypan blue exclusion.
# Mitochondrial membrane potential was analyzed fluorometrically with a lipophilic cationic dye JC-1 (5,5′,6,6′-tetrachloro-1,1′,3,3′-tetraethylbenzimidazol carbocyanine iodide) using a mitochondrial potential detection kit (Biocarta, San Diego, Calif.). Mitochondrial potential was determined as the ratio of red fluorescence (excitation 550 nm, emission 600 nm) and green fluorescence (excitation 485 nm, emission 535 nm) using a fluorescence microplate reader.
# NADPH oxidase = NADPH oxidase expression in cultured adipocytes; type: cell-based, mouse; details: glucose 30 mmol/L alone or plus compound, 48 hours
# Method: (§5) 3T3-L1 preadipocytes were incubated at a density of 8000 cells/cm^2 (10 cm^2 dish) and grown in Dulbecco's modified Eagle's medium (DMEM) containing 10% FBS and antibiotics (adipocyte medium) at 37° C. in 5% CO2 in air. Confluent preadipocytes were induced to differentiate with a standard differentiation medium consisting of DMEM-F10 (1:1, vol/vol) medium supplemented with 1% FBS, 1 μM dexamethasone, IBMX (0.5 mM) and antibiotics (1% Penicillin-Streptomycin). Preadipocytes were maintained in this differentiation medium for 3 days and subsequently cultured in adipocyte medium. Cultures were re-fed every 2-3 days to allow 90% of cells to reach full differentiation before conducting chemical treatment. Chemicals were freshly diluted in adipocyte medium before treatment. Cells were washed with fresh adipocyte medium, re-fed with medium containing the different treatments, and incubated at 37° C. in 5% CO2 in air before analysis. Cell viability was measured via trypan blue exclusion. Adipocyte 18s, cyclin A, NADPH oxidase, and UCP2 were quantitatively measured using a Smart Cycler Real Time PCR System (Cepheid, Sunnyvale, Calif.) with a TaqMan 1000 Core Reagent Kit (Applied Biosystems, Branchburg, N.J.). The primers and probe sets were ordered from Applied Biosystems TaqMan® Assays-on-Demand™ Gene Expression primers and probe set collection according to manufacture's instruction. Pooled adipocyte total RNA was serial-diluted in the range of 1.5625-25 ng and used to establish a standard curve; total RNAs for unknown samples were also diluted in this range. Reactions of quantitative RT-PCR for standards and unknown samples were also performed according to the instructions of Smart Cycler System (Cepheid, Sunnyvale, Calif.) and TaqMan Real Time PCR Core Kit (Applied Biosystems, Branchburg, N.J.). The mRNA quantitation for each sample was further normalized using the corresponding 18s quantitation.
# cyclin A = assay: Cyclin A expression in cultured adipocytes; type: cell-based, mouse; details: compound plus glucose 30 mmol/L, 48 hours
# Method: as §5, with “Cells were washed with fresh adipocyte medium, re-fed with medium containing the different treatments, and incubated at 37° C. in 5% CO2 in air before analysis.” left out, “The primers and probe sets were ordered from Applied Biosystems TaqMan® Assays-on-Demand™ Gene Expression primers and probe set collection according to manufacture's instruction. Pooled adipocyte total RNA was serial-diluted in the range of 1.5625-25 ng and used to establish a standard curve; total RNAs for unknown samples were also diluted in this range.” left out
# C2C12 myotubes [4] = assay: Fatty acid oxidation (palmitate oxidation) in muscle cells; type: cell-based, murine
# Method: FIG. 53: Fatty acid oxidation was determined via palmitate oxidation. […] Data are corrected for DNA content. Values are presented as mean±SEM, n=6. Means with different letter differ with p<0.05.
# The adipose tissue-skeletal muscle endocrine axis may play a potential role in regulating metabolic energy partitioning. […] While both calcium and dairy accelerate adipose tissue loss, dairy exerts a substantially greater effect and exerts a protective effect on lean tissue during hypocaloric diets. We have shown that dietary calcium modulation of adiposity is mediated, in part, by suppression of calcitriol, while the additional effect of dairy is mediated by additional bioactive components; these include the high concentration of leucine, a key factor in the regulation of muscle protein turnover. […] However, the effect of leucine and calcium, in regulating this process is unclear. Accordingly, present study was designed to investigate the effect of leucine, calcitriol and calcium on energy metabolism in murine adipocytes and muscle cells. Leucine induced a 41% increase in fatty acid oxidation in C2C12 muscle cells (p<0.001) and decreased fatty acid synthase gene expression by 66% (p<0.001) in 3T3-L1 adipocytes. Calcitriol decreased muscle cell fatty acid oxidation by 17% (p<0.05) and increased adipocyte FAS gene expression by 3-fold (p<0.05).
# fatty acid synthase = assay: Fatty acid synthase gene expression in adipocytes; type: cell-based, murine
# Description: The adipose tissue-skeletal muscle endocrine axis may play a potential role in regulating metabolic energy partitioning. […] However, the effect of leucine and calcium, in regulating this process is unclear. Accordingly, present study was designed to investigate the effect of leucine, calcitriol and calcium on energy metabolism in murine adipocytes and muscle cells.
# C2C12 myotubes [5] = assay: IL-15 release by myotubes (ELISA); type: cell-based, murine; details: for effect on IL-15 release: C2C12 myotubes, 48 hours
# Method: IL-15 release in the medium was determined using ELISA. Data are corrected for DNA content. Values are presented as mean±SEM, n=6. Means with different letter differ with p<0.05.
molecule,measurement,setting,value
O=[N+]([O-])c1ccc(O)c([N+](=O)[O-])c1 [DNP],effect on calcitriol stimulated TNFα expression,TNFα,blocked
same,effect on calcitriol stimulated IL-6 expression,IL-6,blocked
Nc1nc2c(ncn2[C@@H]2O[C@H](COP(=O)(O)OP(=O)(O)O)[C@@H](O)[C@H]2O)c(=O)[nH]1 [GDP],effect on glucose induced DNA synthesis,3T3-L1 adipocytes [1],augmented
same,increase in ROS production compared with H2O2 treatment alone,"3T3-L1 adipocytes [2]; GDP 100 μmol/L plus H2O2, 48 hours, p<0.01",24%
same,effect on high glucose induced ROS production,"3T3-L1 adipocytes [2]; compound plus glucose 30 mmol/L, 48 hours",further stimulated
same,augmentation of the H2O2 effect on mitochondrial potential,3T3-L1 adipocytes [3],10%
same,effect on NADPH oxidase expression,NADPH oxidase,suppressed
same,effect on glucose stimulated cyclin A expression,cyclin A,augmented
O=C[C@H](O)[C@@H](O)[C@H](O)[C@H](O)CO [glucose],effect on ROS production,"3T3-L1 adipocytes [2]; glucose 30 mmol/L, 48 hours, p<0.05",increased ROS production significantly
same,effect on NADPH oxidase expression,NADPH oxidase,increased
CC(C)C[C@H](N)C(=O)O [leucine],increase in fatty acid oxidation,"C2C12 myotubes [4]; C2C12 muscle cells, leucine 2.5 mM, 48 hours, p<0.001",41%
same,effect on conditioned medium decreased fatty acid oxidation in muscle cells,C2C12 myotubes [4]; adipocytes conditioned with leucine and/or nifedipine,attenuated
same,effect on calcitriol decreased muscle cell fatty acid oxidation,C2C12 myotubes [4]; compound added to calcitriol,partially reversed
same,decrease in fatty acid synthase gene expression,"fatty acid synthase; 3T3-L1 adipocytes, p<0.001",66%
same,effect on calcitriol increased adipocyte FAS gene expression,fatty acid synthase; compound added to calcitriol,partially reversed
same,effect on IL-15 release,C2C12 myotubes [5],without effect
"adiponectin: adipokine added to C2C12 myotubes at 70 ng/ml (protein, UniProt Q15848 19-244, looked up) Adiponectin: ETTTQGPGVLLPLPKGACTGWMAGIPGHPGHNGAPGRDGRDGTPGEKGEKGDPGLIGPKGDIGETGVPGAEGPRGFPGIQGRKGEPGEGAYVYRSAFSVGLETYVTIPNMPIRFTKIFYNQQNHYDGSTGKFHCNIPGLYYFAYHITVYMKDVKVSLFKKDKAMLFTYDQYQENNVDQASGSVLLHLEVGDQVWLQVYGEGERNGLYADNDNDSTFTGFLLYHDTN",effect on fatty acid oxidation,"C2C12 myotubes [4]; C2C12 myotubes, adiponectin 70 ng/ml, 48 hours",markedly increased
same,effect on fatty acid oxidation suppressed by calcitriol,C2C12 myotubes [4]; in the presence of leucine,restored
same,effect on IL-15 release,C2C12 myotubes [5],significantly increased
same,effect on calcitriol inhibition of IL-15 release,C2C12 myotubes [5]; adiponectin 70 ng/ml plus calcitriol 10 nM,partially reversed

# Source: patent publication US20110038948A1, “Methods of Reducing the Production of Reactive Oxygen Species and Methods of Screening or Identifying Compounds and Compositions that Reduce the Production of Reactive Oxygen Species” (UNIVERSITY OF TENNESSEE RESEARCH FOUNDATION, priority 2005, published 2011)
